Experimental data published in ChEMBL document CHEMBL1671750, “Emergence and molecular characterization of extensively drug-resistant Mycobacterium tuberculosis clinical isolates from the Delhi Region in India” (2010).
≈ marks a conversion by molar mass, not a printed value. Calls of active or inactive are those of the source. The calls are words filed in the database; no cut-off is given here.

Tests used:
[1] = test system: Mycobacterium tuberculosis; test: Antimycobacterial activity against extensively drug-resistant Mycobacterium tuberculosis isolate 2403 obtained from sputum of patient at 2 ug/ml by Bactec MGIT960 modified proportion method; assay type: functional, organism-based
[2] = test system: Mycobacterium tuberculosis; test: Antimycobacterial activity against extensively drug-resistant Mycobacterium tuberculosis isolate 2301 obtained from sputum of patient at 2 ug/ml by Bactec MGIT960 modified proportion method; assay type: functional, organism-based
[3] = test system: Mycobacterium tuberculosis; test: Antimycobacterial activity against extensively drug-resistant Mycobacterium tuberculosis isolate 2911 obtained from sputum of patient at 2 ug/ml by Bactec MGIT960 modified proportion method; assay type: functional, organism-based
[4] = test system: Mycobacterium tuberculosis; test: Antimycobacterial activity against extensively drug-resistant Mycobacterium tuberculosis isolate 625 obtained from sputum of patient at 2 ug/ml by Bactec MGIT960 modified proportion method; assay type: functional, organism-based
[5] = test system: Mycobacterium tuberculosis; test: Antimycobacterial activity against extensively drug-resistant Mycobacterium tuberculosis isolate 761 obtained from pus of patient at 2 ug/ml by Bactec MGIT960 modified proportion method; assay type: functional, organism-based
[6] = test system: Mycobacterium tuberculosis; test: Antimycobacterial activity against extensively drug-resistant Mycobacterium tuberculosis isolate 2403 obtained from sputum of patient at 100 ug/ml by Bactec MGIT960 modified proportion method; assay type: functional, organism-based
[7] = test system: Mycobacterium tuberculosis; test: Antimycobacterial activity against extensively drug-resistant Mycobacterium tuberculosis isolate 2301 obtained from sputum of patient at 100 ug/ml by Bactec MGIT960 modified proportion method; assay type: functional, organism-based
[8] = test system: Mycobacterium tuberculosis; test: Antimycobacterial activity against extensively drug-resistant Mycobacterium tuberculosis isolate 2911 obtained from sputum of patient at 100 ug/ml by Bactec MGIT960 modified proportion method; assay type: functional, organism-based
[9] = test system: Mycobacterium tuberculosis; test: Antimycobacterial activity against extensively drug-resistant Mycobacterium tuberculosis isolate 2474 obtained from sputum of patient at 100 ug/ml by Bactec MGIT960 modified proportion method; assay type: functional, organism-based
[10] = test system: Mycobacterium tuberculosis; test: Antimycobacterial activity against extensively drug-resistant Mycobacterium tuberculosis isolate 625 obtained from sputum of patient at 100 ug/ml by Bactec MGIT960 modified proportion method; assay type: functional, organism-based
[11] = test system: Mycobacterium tuberculosis; test: Antimycobacterial activity against extensively drug-resistant Mycobacterium tuberculosis isolate 761 obtained from pus of patient at 100 ug/ml by Bactec MGIT960 modified proportion method; assay type: functional, organism-based
[12] = test system: Mycobacterium tuberculosis; test: Antimycobacterial activity against extensively drug-resistant Mycobacterium tuberculosis isolate 2301 obtained from sputum of patient at 1 ug/ml by Bactec MGIT960 modified proportion method; assay type: functional, organism-based
[13] = test system: Mycobacterium tuberculosis; test: Antimycobacterial activity against extensively drug-resistant Mycobacterium tuberculosis isolate 2911 obtained from sputum of patient at 1 ug/ml by Bactec MGIT960 modified proportion method; assay type: functional, organism-based
[14] = test system: Mycobacterium tuberculosis; test: Antimycobacterial activity against extensively drug-resistant Mycobacterium tuberculosis isolate 2474 obtained from sputum of patient at 1 ug/ml by Bactec MGIT960 modified proportion method; assay type: functional, organism-based
[15] = test system: Mycobacterium tuberculosis; test: Antimycobacterial activity against extensively drug-resistant Mycobacterium tuberculosis isolate 625 horboring rpoB S531L/G566R/I569L, katG S315T/R463L, gyrA A90V/S95T, rrs A1401G by CLSI method; assay type: functional
[16] = test system: Mycobacterium tuberculosis; test: Antimycobacterial activity against extensively drug-resistant Mycobacterium tuberculosis isolate 761 horboring rpoB S531L/Q510P, katG S315T/R463L, gyrA D94N/S95T, rrs G1484T by CLSI method; assay type: functional
[17] = test system: Mycobacterium tuberculosis; test: Antimycobacterial activity against extensively drug-resistant Mycobacterium tuberculosis isolate 2301 horboring rpoB S531L, katG R463L/E217G, gyrA D94N/S95T, rrs A1401G by CLSI method; assay type: functional
[18] = test system: Mycobacterium tuberculosis; test: Antimycobacterial activity against extensively drug-resistant Mycobacterium tuberculosis isolate 2474 horboring rpoB H526Y, katG D329A/R463L, gyrA D94G/S95T, rrs A1401G by CLSI method; assay type: functional
[19] = test system: Mycobacterium tuberculosis; test: Antimycobacterial activity against extensively drug-resistant Mycobacterium tuberculosis isolate 2911 horboring rpoB D516V, katG S315T/R463L, gyrA D94G/S95T/R128S/Y129C, rrs A1401G by CLSI method; assay type: functional
[20] = test system: Mycobacterium tuberculosis; test: Antimycobacterial activity against extensively drug-resistant Mycobacterium tuberculosis H37Rv by CLSI method; assay type: functional
[21] = test system: Mycobacterium tuberculosis; test: Antimycobacterial activity against extensively drug-resistant Mycobacterium tuberculosis isolate 761 obtained from pus of patient at 1 ug/ml by Bactec MGIT960 modified proportion method; assay type: functional, organism-based
[22] = test system: Mycobacterium tuberculosis; test: Antimycobacterial activity against extensively drug-resistant Mycobacterium tuberculosis isolate 2403 obtained from sputum of patient at 1 ug/ml by Bactec MGIT960 modified proportion method; assay type: functional, organism-based
[23] = test system: Mycobacterium tuberculosis; test: Antimycobacterial activity against extensively drug-resistant Mycobacterium tuberculosis isolate 2403 obtained from sputum of patient at 5 ug/ml by Bactec MGIT960 modified proportion method; assay type: functional, organism-based
[24] = test system: Mycobacterium tuberculosis; test: Antimycobacterial activity against extensively drug-resistant Mycobacterium tuberculosis isolate 2301 obtained from sputum of patient at 5 ug/ml by Bactec MGIT960 modified proportion method; assay type: functional, organism-based
[25] = test system: Mycobacterium tuberculosis; test: Antimycobacterial activity against extensively drug-resistant Mycobacterium tuberculosis isolate 2911 obtained from sputum of patient at 5 ug/ml by Bactec MGIT960 modified proportion method; assay type: functional, organism-based
[26] = test system: Mycobacterium tuberculosis; test: Antimycobacterial activity against extensively drug-resistant Mycobacterium tuberculosis isolate 2474 obtained from sputum of patient at 5 ug/ml by Bactec MGIT960 modified proportion method; assay type: functional, organism-based
[27] = test system: Mycobacterium tuberculosis; test: Antimycobacterial activity against extensively drug-resistant Mycobacterium tuberculosis isolate 761 obtained from pus of patient at 5 ug/ml by Bactec MGIT960 modified proportion method; assay type: functional, organism-based

| Structure (SMILES) | Activity [1] | Activity [2] | Activity [3] | Activity [5] | MIC [15] [µg/mL] | MIC [16] [µg/mL] | MIC [17] [µg/mL] | MIC [18] [µg/mL] | MIC [19] [µg/mL] | MIC [20] [µg/mL] | further results |
| --- | --- | --- | --- | --- | --- | --- | --- | --- | --- | --- | --- |
| COc1c(N2C[C@@H]3CCCN[C@@H]3C2)c(F)cc2c(=O)c(C(=O)O)cn(C3CC3)c12 | inactive | inactive | inactive | inactive | – | – | – | – | – | – | Activity [4]: inactive |
| C[C@H]1COc2c(N3CCN(C)CC3)c(F)cc3c(=O)c(C(=O)O)cn1c23 | inactive | inactive | inactive | inactive | – | – | – | – | – | – | – |
| NC(=O)c1cnccn1 | – | – | – | – | – | – | – | – | – | – | Activity [6]: inactive; Activity [7]: inactive; Activity [8]: Active; Activity [9]: inactive; Activity [10]: inactive; Activity [11]: inactive |
| NCC[C@H](O)C(=O)N[C@@H]1C[C@H](N)[C@@H](O[C@H]2O[C@H](CN)[C@@H](O)[C@H](O)[C@H]2O)[C@H](O)[C@H]1O[C@H]1O[C@H](CO)[C@@H](O)[C@H](N)[C@H]1O [AMIKACIN] | – | – | – | – | >16 | 16 (≈ 27.3 µM) | >16 | >16 | >16 | 0.5 (≈ 0.854 µM) | Activity [12]: inactive; Activity [13]: inactive; Activity [14]: inactive; Activity [21]: inactive; Activity [22]: inactive |
| N[C@@H]1CONC1=O [CYCLOSERINE] | – | – | – | – | 16 (≈ 157 µM) | >16 | 16 (≈ 157 µM) | 16 (≈ 157 µM) | 16 (≈ 157 µM) | 8 (≈ 78.4 µM) | – |
| CC[C@@H](CO)NCCN[C@@H](CC)CO [ETHAMBUTOL] | – | – | – | – | 4 (≈ 19.6 µM) | 8 (≈ 39.2 µM) | 2 (≈ 9.79 µM) | 4 (≈ 19.6 µM) | 4 (≈ 19.6 µM) | 1 (≈ 4.89 µM) | Activity [23]: inactive; Activity [24]: inactive; Activity [25]: inactive; Activity [26]: inactive; Activity [27]: Active |
